Laboratory results: patent publication US9090600B2, “Fungicidal 4-substituted-3-{phenyl[(heterocyclylmethoxy)imino]methyl}-1,2,4-oxadizol-5(4H)-one derivatives” (BAYER INTELLECTUAL PROPERTY GMBH, priority 2011, dated 2015)
Marks after values point to notes of the source that are not given here.

Details: pH 2.7

Structure (SMILES) | LogP
CC(Oc1ccccc1)C(=O)Nc1nc(CON=C(c2ccccc2Cl)c2noc(=O)n2C)cs1 (stereo not drawn) [Example 493] | 3.81 [a]
C#CCCOC(=O)Nc1nc(CON=C(c2ccccc2Cl)c2noc(=O)n2C)cs1 [Example 499] | 3.19 [a]
Cn1c(C(=NOCc2cccc(N)n2)c2cccc(F)c2F)noc1=O [Example 508] | 1.34 [a]
Cn1c(C(=NOCc2cccc(N)n2)c2ccccc2F)noc1=O [Example 510] | 1.23 [a]
CCCCSC(=S)Nc1nc(CON=C(c2ccccc2)c2noc(=O)n2C)cs1 [Example 512] | 4.81 [a]
CCCCCC(=O)Nc1cccc(CO/N=C(/c2ccccc2F)c2noc(=O)n2C)n1 [Example 513] | 3.81 [a]
CCCCOC(=O)Nc1nc(CO/N=C(/c2ccccc2Cl)c2noc(=O)n2C)cs1 [Example 519] | 3.85 [a]
C#CCCOC(=O)Nc1cccc(CO/N=C(/c2ccccc2F)c2noc(=O)n2C)n1 [Example 525] | 3.21 [a]
CCCCCOC(=O)Nc1nc(CO/N=C(/c2ccccc2Cl)c2noc(=O)n2C)cs1 [Example 530] | 4.25 [a]
CCCCCC(=O)Nc1nc(CO/N=C(/c2ccccc2Cl)c2noc(=O)n2C)cs1 [Example 538] | 3.89 [a]
Cn1c(/C(=N\OCc2csc(NC(=O)SC(C)(C)C)n2)c2ccccc2)noc1=O [Example 539] | 4.04 [a]
Cn1c(/C(=N\OCc2csc(NC(=O)Cc3ccccc3)n2)c2ccccc2Cl)noc1=O [Example 543] | 3.51 [a]
CCCCOC(=O)Nc1cccc(CO/N=C(/c2ccccc2F)c2noc(=O)n2C)n1 [Example 552] | 3.92 [a]
CCCCCCN(C(=O)OC(C)(C)C)c1cccc(CO/N=C(/c2cccc(C)c2)c2noc(=O)n2C)n1 [compound 299] | 6.57 [a]
Cn1c(/C(=N\OCc2cccc(NC(=O)OCCCC3CCCC3)n2)c2ccccc2)noc1=O [compound 408] | 5.31 [a]
COc1ccccc1COC(=O)Nc1cccc(CO/N=C(/c2ccccc2)c2noc(=O)n2C)n1 [compound 409] | 4.06 [a]
Cn1c(/C(=N\OCc2cccc(NC(=O)OCc3ccncc3)n2)c2ccccc2)noc1=O [compound 411] | 2.01 [a]
Cn1c(/C(=N\OCc2cccc(NC(=O)OCC3(C)COC3)n2)c2ccccc2)noc1=O [compound 412] | 2.96 [a]
Cn1c(/C(=N\OCc2cccc(NC(=O)OCc3ccccc3Cl)n2)c2ccccc2)noc1=O [compound 413] | 4.34 [a]
CC#CCOC(=O)Nc1cccc(CO/N=C(/c2ccccc2)c2noc(=O)n2C)n1 [compound 414] | 3.42 [a]
CCCCCC#CCOC(=O)Nc1cccc(CO/N=C(/c2ccccc2)c2noc(=O)n2C)n1 [compound 415] | 4.86 [a]
CCCCC#CCOC(=O)Nc1cccc(CO/N=C(/c2ccccc2)c2noc(=O)n2C)n1 [compound 418] | 4.51 [a]
CCCCCCCOC(=O)Nc1cccc(CO/N=C(/c2ccccc2)c2noc(=O)n2C)n1 [compound 419] | 5.25 [a]
CCOC(=O)Nc1cccc(CO/N=C(/c2ccccc2)c2noc(=O)n2C)n1 [compound 421] | 3.21 [a]
Cn1c(/C(=N\OCc2cccc(NC(=O)OCCC[Si](C)(C)C)n2)c2ccccc2)noc1=O [compound 422] | 5.28 [a]

Structure (SMILES) | LogP
Cn1c(/C(=N\OCc2cccc(NC(=O)OCCC(C)(C)C)n2)c2ccccc2)noc1=O [compound 423] | 4.68 [a]
Cn1c(/C(=N\OCc2cccc(NC(=O)OCC(C)(CO)CCl)n2)c2ccccc2)noc1=O (stereo not drawn) [compound 424] | 3.19 [a]
Cc1ccc(OC(=O)Nc2cccc(CO/N=C(/c3ccccc3)c3noc(=O)n3C)n2)cc1 [compound 425] | 4.03 [a]
CCCc1ccccc1OC(=O)Nc1cccc(CO/N=C(/c2ccccc2)c2noc(=O)n2C)n1 [compound 426] | 4.54 [a]
CC(C)OC(=O)Nc1cccc(CO/N=C(/c2ccccc2)c2noc(=O)n2C)n1 [compound 427] | 3.55 [a]
Cn1c(/C(=N\OCc2cccc(NC(=O)OCc3c(Cl)cccc3Cl)n2)c2ccccc2)noc1=O [compound 428] | 4.56 [a]
COC(C)CCOC(=O)Nc1cccc(CO/N=C(/c2ccccc2)c2noc(=O)n2C)n1 (stereo not drawn) [compound 429] | 3.37 [a]
CCc1ccccc1OC(=O)Nc1cccc(CO/N=C(/c2ccccc2)c2noc(=O)n2C)n1 [compound 430] | 4.25 [a]
CCOCCCOC(=O)Nc1cccc(CO/N=C(/c2ccccc2)c2noc(=O)n2C)n1 [compound 431] | 3.44 [a]
Cn1c(/C(=N\OCc2cccc(NC(=O)OCc3ccc(C#N)cc3)n2)c2ccccc2)noc1=O [compound 432] | 3.61 [a]
Cn1c(/C(=N\OCc2cccc(NC(=O)OCC3CCCCO3)n2)c2ccccc2)noc1=O (stereo not drawn) [compound 433] | 3.5 [a]
Cn1c(/C(=N\OCc2cccc(NC(=O)OCc3cccnc3)n2)c2ccccc2)noc1=O [compound 434] | 2.17 [a]
CCc1cccc(OC(=O)Nc2cccc(CO/N=C(/c3ccccc3)c3noc(=O)n3C)n2)c1 [compound 435] | 4.34 [a]
C#CCCCOC(=O)Nc1cccc(CO/N=C(/c2ccccc2)c2noc(=O)n2C)n1 [compound 436] | 3.51 [a]
Cn1c(/C(=N\OCc2cccc(NC(=O)OCc3ccccn3)n2)c2ccccc2)noc1=O [compound 437] | 2.64 [a]
Cn1c(/C(=N\OCc2cccc(NC(=O)OCCC3CC3)n2)c2ccccc2)noc1=O [compound 438] | 4.01 [a]
CCOCCOCCOC(=O)Nc1cccc(CO/N=C(/c2ccccc2)c2noc(=O)n2C)n1 [compound 439] | 3.13 [a]
Cn1c(/C(=N\OCc2cccc(NC(=O)OC[Si](C)(C)C)n2)c2ccccc2)noc1=O [compound 440] | 4.53 [a]
COc1cccc(COC(=O)Nc2cccc(CO/N=C(/c3ccccc3)c3noc(=O)n3C)n2)c1 [compound 441] | 3.96 [a]
Cn1c(/C(=N\OCc2cccc(NC(=O)OCC#C[Si](C)(C)C)n2)c2ccccc2)noc1=O [compound 443] | 4.63 [a]
Cn1c(/C(=N\OCc2cccc(NC(=O)OC(C)(C)C(Cl)(Cl)Cl)n2)c2ccccc2)noc1=O [compound 445] | 4.91 [a]
CC(=O)CCCOC(=O)Nc1cccc(CO/N=C(/c2ccccc2)c2noc(=O)n2C)n1 [compound 446] | 2.96 [a]
Cn1c(/C(=N\OCc2cccc(NC(=O)OCCOCCCl)n2)c2ccccc2)noc1=O [compound 447] | 3.29 [a]
CC(C)=CCCOC(=O)Nc1cccc(CO/N=C(/c2ccccc2)c2noc(=O)n2C)n1 [compound 448] | 4.39 [a]
COc1ccc(COC(=O)Nc2cccc(CO/N=C(/c3ccccc3)c3noc(=O)n3C)n2)cc1 [compound 450] | 3.92 [a]

Structure (SMILES) | LogP
CC(COC(=O)Nc1cccc(CO/N=C(/c2ccccc2)c2noc(=O)n2C)n1)CC(C)(C)C (stereo not drawn) [compound 451] | 5.39 [a]
C=CCC#CCCOC(=O)Nc1cccc(CO/N=C(/c2ccccc2)c2noc(=O)n2C)n1 [compound 452] | 4.01 [a]
C=CCCCCOC(=O)Nc1cccc(CO/N=C(/c2ccccc2)c2noc(=O)n2C)n1 [compound 454] | 4.39 [a]
Cn1c(/C(=N\OCc2cccc(NC(=O)OCCOc3ccccc3)n2)c2ccccc2)noc1=O [compound 456] | 3.94 [a]
COC(C)(C)CCOC(=O)Nc1cccc(CO/N=C(/c2ccccc2)c2noc(=O)n2C)n1 [compound 457] | 3.59 [a]
Cc1cccc(COC(=O)Nc2cccc(CO/N=C(/c3ccccc3)c3noc(=O)n3C)n2)c1 [compound 458] | 4.34 [a]
Cn1c(/C(=N\OCc2cccc(NC(=O)OCCBr)n2)c2ccccc2)noc1=O [compound 459] | 3.42 [a]
Cn1c(/C(=N\OCc2cccc(NC(=O)OCC(Cl)Cl)n2)c2ccccc2)noc1=O [compound 461] | 3.74 [a]
CC(C)[C@@H]1CC[C@@H](C)C[C@H]1OC(=O)Nc1cccc(CO/N=C(/c2ccccc2)c2noc(=O)n2C)n1 [compound 462] | 5.9 [a]
CCCCCCCCOC(=O)Nc1cccc(CO/N=C(/c2ccccc2)c2noc(=O)n2C)n1 [compound 465] | 5.65 [a]
C=C(C)OC(=O)Nc1cccc(CO/N=C(/c2ccccc2)c2noc(=O)n2C)n1 [compound 466] | 3.37 [a]
CCCc1ccc(OC(=O)Nc2cccc(CO/N=C(/c3ccccc3)c3noc(=O)n3C)n2)cc1 [compound 467] | 4.74 [a]
Cn1c(/C(=N\OCc2cccc(NC(=O)OCC#Cc3ccccc3)n2)c2ccccc2)noc1=O [compound 468] | 4.25 [a]
CCCc1cccc(OC(=O)Nc2cccc(CO/N=C(/c3ccccc3)c3noc(=O)n3C)n2)c1 [compound 469] | 4.72 [a]
Cc1cc(C)c(OC(=O)Nc2cccc(CO/N=C(/c3ccccc3)c3noc(=O)n3C)n2)c(C)c1 [compound 470] | 4.56 [a]
Cn1c(/C(=N\OCc2cccc(NC(=O)OCCc3ccccn3)n2)c2ccccc2)noc1=O [compound 471] | 2.07 [a]
CN(C)CCCOC(=O)Nc1cccc(CO/N=C(/c2ccccc2)c2noc(=O)n2C)n1 [compound 472] | 1.88 [a]
Cn1c(/C(=N\OCc2cccc(NC(=O)OCC3CC3)n2)c2ccccc2)noc1=O [compound 473] | 3.64 [a]
Cn1c(/C(=N\OCc2cccc(NC(=O)OCc3ccc([N+](=O)[O-])cc3)n2)c2ccccc2)noc1=O [compound 476] | 3.83 [a]
Cn1c(/C(=N\OCc2cccc(NC(=O)OCc3cccc(C#N)c3)n2)c2ccccc2)noc1=O [compound 477] | 3.65 [a]
CCc1ccc(OC(=O)Nc2cccc(CO/N=C(/c3ccccc3)c3noc(=O)n3C)n2)cc1 [compound 478] | 4.39 [a]
C=COC(=O)Nc1cccc(CO/N=C(/c2ccccc2)c2noc(=O)n2C)n1 [compound 482] | 3.33 [a]
Cn1c(C(=NOCc2cccc(NC(=O)OCC3CCCO3)n2)c2ccccc2)noc1=O (stereo not drawn) [compound 483] | 3.11 [a]
C#CCCCCOC(=O)Nc1cccc(CON=C(c2ccccc2)c2noc(=O)n2C)n1 [compound 484] | 3.78 [a]
CC(OC(=O)Nc1cccc(CON=C(c2ccccc2)c2noc(=O)n2C)n1)C1CCCCC1 (stereo not drawn) [compound 485] | 5.25 [a]
